Test results reported in ChEMBL document CHEMBL5291721, “A preclinical secondary pharmacology resource illuminates target-adverse drug reaction associations of marketed drugs” (Nat Commun, 2023).

Columns and labels:
[1] = target: T1, Alpha-1A adrenergic receptor (Homo sapiens, UniProt P35348)
T1 sequence (P35348 whole entry): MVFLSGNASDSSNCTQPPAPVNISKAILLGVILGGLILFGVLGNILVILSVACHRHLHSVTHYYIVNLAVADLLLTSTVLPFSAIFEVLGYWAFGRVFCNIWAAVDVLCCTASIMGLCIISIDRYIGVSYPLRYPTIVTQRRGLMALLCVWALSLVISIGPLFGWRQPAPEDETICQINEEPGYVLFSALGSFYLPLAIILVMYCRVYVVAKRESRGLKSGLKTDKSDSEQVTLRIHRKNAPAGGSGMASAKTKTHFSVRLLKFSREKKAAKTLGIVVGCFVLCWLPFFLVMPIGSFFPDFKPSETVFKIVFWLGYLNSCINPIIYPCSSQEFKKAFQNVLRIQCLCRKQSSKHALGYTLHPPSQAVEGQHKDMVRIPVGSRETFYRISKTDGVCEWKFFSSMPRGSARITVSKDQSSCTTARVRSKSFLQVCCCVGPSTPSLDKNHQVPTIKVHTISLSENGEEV

[2] = target: T2, Alpha-2A adrenergic receptor (Homo sapiens, UniProt P08913); format: functional, cell-based
T2 sequence (P08913 whole entry): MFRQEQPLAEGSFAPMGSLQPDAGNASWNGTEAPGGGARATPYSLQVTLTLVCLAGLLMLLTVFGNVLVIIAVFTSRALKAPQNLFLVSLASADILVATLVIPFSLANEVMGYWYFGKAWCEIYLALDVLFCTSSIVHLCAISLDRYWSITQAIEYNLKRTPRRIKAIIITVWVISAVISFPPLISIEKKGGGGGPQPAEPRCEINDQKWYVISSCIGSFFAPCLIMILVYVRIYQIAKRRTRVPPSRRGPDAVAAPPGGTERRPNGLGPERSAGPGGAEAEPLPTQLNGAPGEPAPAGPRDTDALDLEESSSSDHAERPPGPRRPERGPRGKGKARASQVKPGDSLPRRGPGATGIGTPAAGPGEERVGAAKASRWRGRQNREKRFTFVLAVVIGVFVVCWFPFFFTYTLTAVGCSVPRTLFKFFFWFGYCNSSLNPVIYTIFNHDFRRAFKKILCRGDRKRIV

[3] = target: T3, Type-1 angiotensin II receptor (Homo sapiens, UniProt P30556)
T3 sequence (P30556 whole entry): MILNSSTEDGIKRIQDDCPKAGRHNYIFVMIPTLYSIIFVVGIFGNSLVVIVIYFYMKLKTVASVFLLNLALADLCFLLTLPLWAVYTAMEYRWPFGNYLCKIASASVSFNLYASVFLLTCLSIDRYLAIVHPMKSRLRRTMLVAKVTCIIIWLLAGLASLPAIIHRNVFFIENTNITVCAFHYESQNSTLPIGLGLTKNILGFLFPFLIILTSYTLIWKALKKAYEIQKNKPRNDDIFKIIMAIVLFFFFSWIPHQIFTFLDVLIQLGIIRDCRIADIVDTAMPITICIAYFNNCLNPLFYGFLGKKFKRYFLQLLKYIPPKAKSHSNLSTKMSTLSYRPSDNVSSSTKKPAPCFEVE

[4] = target: T4, Muscarinic acetylcholine receptor M2 (Homo sapiens, UniProt P08172); format: functional, cell-based
T4 sequence (P08172 whole entry): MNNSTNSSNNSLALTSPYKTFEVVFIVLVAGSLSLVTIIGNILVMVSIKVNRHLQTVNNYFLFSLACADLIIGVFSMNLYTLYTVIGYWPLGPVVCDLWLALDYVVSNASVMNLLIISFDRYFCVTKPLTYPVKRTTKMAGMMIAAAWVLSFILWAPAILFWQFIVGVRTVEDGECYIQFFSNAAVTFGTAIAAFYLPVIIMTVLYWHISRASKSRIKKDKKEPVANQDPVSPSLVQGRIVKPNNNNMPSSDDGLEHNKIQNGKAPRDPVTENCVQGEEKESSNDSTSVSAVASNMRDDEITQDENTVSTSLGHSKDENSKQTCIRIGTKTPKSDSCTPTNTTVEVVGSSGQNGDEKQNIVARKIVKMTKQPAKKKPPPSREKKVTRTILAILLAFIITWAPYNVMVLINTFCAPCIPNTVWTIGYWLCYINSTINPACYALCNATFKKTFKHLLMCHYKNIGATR

[5] = target: Neuronal acetylcholine receptor subunit alpha-4 (Homo sapiens, UniProt P43681)
[6] = target: Gamma-aminobutyric acid receptor subunit alpha-1 (Rattus norvegicus, UniProt P62813); format: functional
[7] = target: Growth hormone secretagogue receptor type 1 (Homo sapiens, UniProt Q92847)
Histamine H1 receptor = Histamine H1 receptor (Homo sapiens, UniProt P35367)
[8] = target: 5-hydroxytryptamine receptor 2A (Homo sapiens, UniProt P28223); format: functional, cell-based
[9] = target: T5, 5-hydroxytryptamine receptor 3A (Homo sapiens, UniProt P46098); format: functional
T5 sequence (P46098 whole entry): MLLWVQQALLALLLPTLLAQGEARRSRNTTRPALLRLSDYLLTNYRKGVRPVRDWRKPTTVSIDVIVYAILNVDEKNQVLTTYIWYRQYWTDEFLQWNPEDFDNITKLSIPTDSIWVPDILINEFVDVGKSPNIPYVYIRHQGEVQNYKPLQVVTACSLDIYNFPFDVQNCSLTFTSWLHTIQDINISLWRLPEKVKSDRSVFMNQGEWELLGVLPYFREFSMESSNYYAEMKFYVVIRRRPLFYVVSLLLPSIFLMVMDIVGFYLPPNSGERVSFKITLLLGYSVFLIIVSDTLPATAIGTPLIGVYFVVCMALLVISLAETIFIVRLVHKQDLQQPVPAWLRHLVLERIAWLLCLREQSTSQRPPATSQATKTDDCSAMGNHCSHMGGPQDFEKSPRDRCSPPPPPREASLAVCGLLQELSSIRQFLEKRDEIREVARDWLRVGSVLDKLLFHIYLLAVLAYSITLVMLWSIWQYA

Melanocortin receptor 4 = Melanocortin receptor 4 (Homo sapiens, UniProt P32245)
[10] = target: Delta-type opioid receptor (Homo sapiens, UniProt P41143)
[11] = target: Sodium-dependent dopamine transporter (Homo sapiens, UniProt Q01959)
[12] = target: Sodium-dependent noradrenaline transporter (Homo sapiens, UniProt P23975)
[13] = target: Sodium-dependent serotonin transporter (Homo sapiens, UniProt P31645)
Further: assay procedure not described here.

Gamma-aminobutyric acid receptor subunit alpha-1, sequence (P62813 whole entry): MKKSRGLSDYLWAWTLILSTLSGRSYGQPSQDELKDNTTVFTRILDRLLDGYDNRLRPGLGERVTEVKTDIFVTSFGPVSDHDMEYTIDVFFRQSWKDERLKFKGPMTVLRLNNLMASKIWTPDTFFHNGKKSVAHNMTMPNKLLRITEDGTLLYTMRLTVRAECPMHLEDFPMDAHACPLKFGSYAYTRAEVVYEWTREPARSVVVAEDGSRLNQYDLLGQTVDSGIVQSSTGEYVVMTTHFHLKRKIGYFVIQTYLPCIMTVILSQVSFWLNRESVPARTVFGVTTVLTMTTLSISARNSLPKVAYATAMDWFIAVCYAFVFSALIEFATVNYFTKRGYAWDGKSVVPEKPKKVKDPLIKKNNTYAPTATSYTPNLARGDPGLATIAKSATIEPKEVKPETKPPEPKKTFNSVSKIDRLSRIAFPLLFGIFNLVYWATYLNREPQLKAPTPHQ
5-hydroxytryptamine receptor 2A, sequence (P28223 whole entry): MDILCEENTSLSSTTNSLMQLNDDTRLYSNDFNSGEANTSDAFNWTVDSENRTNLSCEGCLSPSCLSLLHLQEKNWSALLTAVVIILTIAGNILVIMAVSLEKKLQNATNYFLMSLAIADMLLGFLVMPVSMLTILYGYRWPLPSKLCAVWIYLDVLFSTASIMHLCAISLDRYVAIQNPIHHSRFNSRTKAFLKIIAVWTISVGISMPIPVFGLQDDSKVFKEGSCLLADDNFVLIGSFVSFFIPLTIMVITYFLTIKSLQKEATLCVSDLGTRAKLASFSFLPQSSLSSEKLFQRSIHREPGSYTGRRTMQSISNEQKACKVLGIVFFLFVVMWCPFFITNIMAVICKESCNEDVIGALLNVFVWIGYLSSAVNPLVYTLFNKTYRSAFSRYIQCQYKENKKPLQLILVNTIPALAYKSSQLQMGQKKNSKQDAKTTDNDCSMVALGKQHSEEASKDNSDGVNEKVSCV
Growth hormone secretagogue receptor type 1, sequence (Q92847 whole entry): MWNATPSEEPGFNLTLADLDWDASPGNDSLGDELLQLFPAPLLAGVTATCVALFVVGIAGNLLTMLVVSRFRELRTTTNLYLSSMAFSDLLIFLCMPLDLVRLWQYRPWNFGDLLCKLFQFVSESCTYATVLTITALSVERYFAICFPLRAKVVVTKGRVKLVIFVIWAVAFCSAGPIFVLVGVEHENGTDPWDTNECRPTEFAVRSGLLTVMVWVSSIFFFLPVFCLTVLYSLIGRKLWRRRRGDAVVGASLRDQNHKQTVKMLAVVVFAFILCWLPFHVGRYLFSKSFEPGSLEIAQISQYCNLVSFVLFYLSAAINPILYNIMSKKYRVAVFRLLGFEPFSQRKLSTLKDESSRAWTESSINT
Sodium-dependent dopamine transporter, sequence (Q01959 whole entry): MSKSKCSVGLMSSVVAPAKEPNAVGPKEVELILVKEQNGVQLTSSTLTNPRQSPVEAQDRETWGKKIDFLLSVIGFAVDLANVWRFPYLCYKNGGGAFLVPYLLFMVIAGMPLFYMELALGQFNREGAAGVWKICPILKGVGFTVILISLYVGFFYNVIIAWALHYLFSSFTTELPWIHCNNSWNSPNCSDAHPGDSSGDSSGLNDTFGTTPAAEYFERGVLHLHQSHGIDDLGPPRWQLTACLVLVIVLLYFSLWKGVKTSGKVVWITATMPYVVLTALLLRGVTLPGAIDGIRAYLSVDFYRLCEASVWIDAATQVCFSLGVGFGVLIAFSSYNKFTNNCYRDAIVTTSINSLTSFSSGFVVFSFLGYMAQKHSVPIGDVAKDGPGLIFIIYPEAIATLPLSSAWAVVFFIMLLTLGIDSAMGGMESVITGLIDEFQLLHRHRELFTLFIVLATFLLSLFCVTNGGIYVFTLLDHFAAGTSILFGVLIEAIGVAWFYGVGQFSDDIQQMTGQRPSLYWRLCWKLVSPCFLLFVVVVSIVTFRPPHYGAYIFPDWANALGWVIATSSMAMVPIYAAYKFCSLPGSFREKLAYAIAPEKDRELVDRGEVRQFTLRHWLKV
Histamine H1 receptor, sequence (P35367 whole entry): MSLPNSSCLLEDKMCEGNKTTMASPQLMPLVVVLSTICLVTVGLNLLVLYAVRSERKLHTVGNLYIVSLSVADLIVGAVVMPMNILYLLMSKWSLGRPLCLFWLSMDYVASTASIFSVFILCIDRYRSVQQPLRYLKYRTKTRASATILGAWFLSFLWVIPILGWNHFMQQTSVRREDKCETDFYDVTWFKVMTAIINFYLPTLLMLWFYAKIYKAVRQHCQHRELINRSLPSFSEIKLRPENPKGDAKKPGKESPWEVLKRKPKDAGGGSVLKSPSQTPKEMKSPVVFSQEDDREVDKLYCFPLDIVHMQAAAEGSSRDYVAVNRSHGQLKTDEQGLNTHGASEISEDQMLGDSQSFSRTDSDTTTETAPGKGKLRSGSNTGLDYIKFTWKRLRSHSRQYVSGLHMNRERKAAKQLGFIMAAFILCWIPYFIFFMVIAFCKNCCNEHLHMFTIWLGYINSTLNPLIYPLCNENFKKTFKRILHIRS
Sodium-dependent noradrenaline transporter, sequence (P23975 whole entry): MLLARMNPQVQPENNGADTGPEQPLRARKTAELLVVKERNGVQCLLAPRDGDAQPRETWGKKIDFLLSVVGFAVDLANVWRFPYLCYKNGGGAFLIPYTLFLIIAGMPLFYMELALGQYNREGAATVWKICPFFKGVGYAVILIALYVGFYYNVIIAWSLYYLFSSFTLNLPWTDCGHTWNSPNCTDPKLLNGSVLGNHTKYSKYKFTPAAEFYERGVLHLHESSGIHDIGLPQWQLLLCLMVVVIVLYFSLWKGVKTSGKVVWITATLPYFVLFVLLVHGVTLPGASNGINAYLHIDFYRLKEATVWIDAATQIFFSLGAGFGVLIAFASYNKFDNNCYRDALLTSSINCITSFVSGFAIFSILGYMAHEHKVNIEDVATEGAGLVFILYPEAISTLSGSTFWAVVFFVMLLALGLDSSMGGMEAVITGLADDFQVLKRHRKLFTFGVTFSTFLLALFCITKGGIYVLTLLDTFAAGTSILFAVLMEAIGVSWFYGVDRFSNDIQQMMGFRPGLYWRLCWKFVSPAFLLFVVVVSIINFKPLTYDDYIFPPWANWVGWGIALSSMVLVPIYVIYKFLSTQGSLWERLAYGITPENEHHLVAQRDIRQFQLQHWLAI
Neuronal acetylcholine receptor subunit alpha-4, sequence (P43681 whole entry): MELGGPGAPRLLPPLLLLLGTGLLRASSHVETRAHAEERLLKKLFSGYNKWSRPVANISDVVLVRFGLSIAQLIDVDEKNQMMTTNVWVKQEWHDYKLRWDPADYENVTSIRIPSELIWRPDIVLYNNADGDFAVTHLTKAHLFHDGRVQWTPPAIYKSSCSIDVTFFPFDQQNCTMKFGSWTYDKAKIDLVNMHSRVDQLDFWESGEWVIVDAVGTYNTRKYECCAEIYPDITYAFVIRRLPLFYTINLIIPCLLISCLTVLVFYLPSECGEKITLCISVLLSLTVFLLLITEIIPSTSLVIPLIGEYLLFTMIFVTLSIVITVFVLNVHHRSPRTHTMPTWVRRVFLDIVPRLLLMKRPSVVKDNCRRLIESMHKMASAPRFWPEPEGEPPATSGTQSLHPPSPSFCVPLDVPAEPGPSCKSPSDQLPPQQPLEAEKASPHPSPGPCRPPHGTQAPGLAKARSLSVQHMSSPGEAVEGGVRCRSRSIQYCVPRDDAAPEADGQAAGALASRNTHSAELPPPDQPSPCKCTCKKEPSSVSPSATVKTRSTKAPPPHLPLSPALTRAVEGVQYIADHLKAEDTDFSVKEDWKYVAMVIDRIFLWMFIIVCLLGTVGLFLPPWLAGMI
Sodium-dependent serotonin transporter, sequence (P31645 whole entry): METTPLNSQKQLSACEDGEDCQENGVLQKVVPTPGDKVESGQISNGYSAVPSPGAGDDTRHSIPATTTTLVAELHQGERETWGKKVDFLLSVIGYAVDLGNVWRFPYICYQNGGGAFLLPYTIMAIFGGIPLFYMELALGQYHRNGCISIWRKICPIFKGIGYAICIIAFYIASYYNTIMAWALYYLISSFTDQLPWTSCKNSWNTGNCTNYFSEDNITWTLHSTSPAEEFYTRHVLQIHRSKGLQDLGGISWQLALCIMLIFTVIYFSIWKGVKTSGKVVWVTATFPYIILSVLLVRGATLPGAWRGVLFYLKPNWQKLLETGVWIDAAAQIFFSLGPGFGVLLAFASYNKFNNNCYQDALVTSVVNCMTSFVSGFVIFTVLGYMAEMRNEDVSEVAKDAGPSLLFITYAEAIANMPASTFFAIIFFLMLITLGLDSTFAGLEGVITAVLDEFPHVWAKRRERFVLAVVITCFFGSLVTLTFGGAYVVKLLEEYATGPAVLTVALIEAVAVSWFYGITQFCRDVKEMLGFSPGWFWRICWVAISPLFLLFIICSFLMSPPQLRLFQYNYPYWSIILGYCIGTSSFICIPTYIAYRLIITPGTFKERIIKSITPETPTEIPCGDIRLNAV
Melanocortin receptor 4, sequence (P32245 whole entry): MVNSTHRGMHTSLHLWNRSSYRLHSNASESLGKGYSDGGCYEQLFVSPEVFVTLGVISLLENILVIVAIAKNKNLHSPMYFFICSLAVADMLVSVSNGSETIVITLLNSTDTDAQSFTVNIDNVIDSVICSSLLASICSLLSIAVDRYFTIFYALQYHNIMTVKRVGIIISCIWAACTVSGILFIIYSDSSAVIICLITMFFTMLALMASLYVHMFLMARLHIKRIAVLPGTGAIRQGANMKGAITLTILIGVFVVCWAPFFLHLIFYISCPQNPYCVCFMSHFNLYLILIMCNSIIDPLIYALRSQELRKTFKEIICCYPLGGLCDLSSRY
Delta-type opioid receptor, sequence (P41143 whole entry): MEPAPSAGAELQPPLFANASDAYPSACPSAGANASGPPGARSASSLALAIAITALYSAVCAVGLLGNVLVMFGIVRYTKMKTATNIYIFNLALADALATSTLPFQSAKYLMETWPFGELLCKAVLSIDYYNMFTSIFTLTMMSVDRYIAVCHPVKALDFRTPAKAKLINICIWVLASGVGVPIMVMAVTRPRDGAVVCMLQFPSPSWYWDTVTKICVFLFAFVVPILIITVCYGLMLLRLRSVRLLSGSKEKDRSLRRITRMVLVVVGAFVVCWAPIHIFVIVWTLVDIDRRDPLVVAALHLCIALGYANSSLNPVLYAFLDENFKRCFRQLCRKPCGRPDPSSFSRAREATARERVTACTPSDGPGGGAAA

| Compound | AC50 [1] | AC50 [2] | AC50 [3] | AC50 [4] | AC50 [5] | AC50 [6] | AC50 [7] | AC50 (Histamine H1 receptor) | AC50 [8] | AC50 [9] | AC50 (Melanocortin receptor 4) | AC50 [10] | AC50 [11] | AC50 [12] | AC50 [13] |
| --- | --- | --- | --- | --- | --- | --- | --- | --- | --- | --- | --- | --- | --- | --- | --- |
| C=C(c1ccccc1OCc1cccc(Cl)c1)n1ccnc1 [CROCONAZOLE] | 9.4 µM | > 10 µM | > 30 µM | > 10 µM | > 10 µM | > 10 µM | > 30 µM | > 10 µM | > 30 µM | > 30 µM | > 30 µM | > 30 µM | > 30 µM | 1.8 µM | 16.8 µM |
| Cc1ccc(-c2ncc(Cl)cc2-c2ccc(S(C)(=O)=O)cc2)cn1 [ETORICOXIB] | > 10 µM | > 10 µM | > 10 µM | > 10 µM | > 10 µM | > 10 µM | > 10 µM | > 10 µM | > 30 µM | > 10 µM | > 10 µM | > 10 µM | > 10 µM | > 10 µM | > 10 µM |
| CCC1(CC)C(=O)NC(=O)N(C)C1=O [METHARBITAL] | > 10 µM | > 10 µM | > 10 µM | > 10 µM | > 10 µM | > 10 µM | > 10 µM | > 10 µM | > 10 µM | > 30 µM | > 10 µM | > 30 µM | > 10 µM | > 10 µM | > 10 µM |
| OCC(O)COc1ccc(Cl)cc1 (stereo not given) | > 10 µM | > 10 µM | > 10 µM | > 10 µM | > 10 µM | > 10 µM | > 10 µM | > 10 µM | > 10 µM | > 30 µM | > 10 µM | > 30 µM | > 10 µM | > 10 µM | > 10 µM |
| O=C(C[S+]([O-])Cc1ccco1)NC/C=C\COc1cc(CN2CCCCC2)ccn1 (stereo not given) [LAFUTIDINE] | > 10 µM | > 10 µM | > 10 µM | > 10 µM | > 10 µM | > 10 µM | > 10 µM | > 10 µM | > 30 µM | > 30 µM | > 10 µM | > 30 µM | > 10 µM | > 10 µM | > 10 µM |
| CC(=O)OCC1=C(C(=O)O)N2C(=O)[C@@H](NC(=O)CSc3ccncc3)[C@H]2SC1 [CEPHAPIRIN] | > 10 µM | > 10 µM | > 10 µM | > 10 µM | > 10 µM | > 10 µM | > 10 µM | > 10 µM | > 10 µM | > 30 µM | > 10 µM | > 30 µM | > 10 µM | > 10 µM | > 10 µM |
| Oc1cc(O)c2c(c1)O[C@H](c1ccc(O)c(O)c1)[C@@H](O)C2 [CIANIDANOL] | > 10 µM | > 10 µM | > 30 µM | > 10 µM | > 10 µM | > 10 µM | > 30 µM | > 10 µM | > 30 µM | > 30 µM | > 30 µM | > 30 µM | > 30 µM | > 30 µM | > 30 µM |
| Nc1nc(Cl)nc2c1ncn2[C@@H]1O[C@H](CO)[C@@H](O)[C@@H]1F [CLOFARABINE] | 29 µM | > 10 µM | > 30 µM | > 10 µM | > 30 µM | > 10 µM | > 30 µM | > 30 µM | > 30 µM | > 30 µM | > 30 µM | > 30 µM | > 30 µM | > 30 µM | > 30 µM |
| CN(C)CCOC(=O)C(c1ccccc1)C1(O)CCCC1 (stereo not given) [CYCLOPENTOLATE] | > 30 µM | > 10 µM | > 10 µM | 0.29 µM | > 10 µM | > 10 µM | > 10 µM | > 30 µM | > 10 µM | > 30 µM | > 10 µM | > 30 µM | > 30 µM | > 30 µM | > 30 µM |
